Measured values as given in patent US8916498B2, “Safening 6-(trisubstituted phenyl)-4-amino-2-pyridinecarboxylate herbicide injury on direct seeded and transplanted paddy rice” (priority 2008, dated 2014).

What was measured:
ORYSA (rice) = assay: Postemergence herbicidal safening in direct seeded rice, visual injury; conditions: for ‘M202’ ORYSA Visual Injury (%) Obs: Safener Alone, 560 g ai/ha; for ‘M202’ ORYSA Visual Injury (%) Obs / Visual Injury (%) ‘Lemont’ ORYSA Obs: after 3 weeks; for Visual Injury (%) ‘Lemont’ ORYSA Obs: 280 g ae/ha
Text: A=observed efficacy of active ingredient A at the same concentration as used in the mixture.
B=observed efficacy of active ingredient B at the same concentration as used in the mixture.

ECHCO = assay: Postemergence herbicidal safening in direct seeded rice, visual injury on weed; assay type: in vivo; conditions: alone, 280 g ae/ha; after 3 weeks
CYPDI = assay: as above; assay type: in vivo; conditions: alone, 280 g ae/ha; after 3 weeks
SEBEX = assay: as above; assay type: in vivo; conditions: alone, 280 g ae/ha; after 3 weeks
[1] = No safener, 35 g ai/ha, after 3 weeks (Table 13)
[2] = alone, 8.75 g ae/ha, after 3 weeks (Table 14)
[3] = alone, 70 g ae/ha, after 3 weeks (Table 14)

Question: Which results are given for O=C(C(Cl)Cl)N1CCOC12CCCCC2 [AD67]?
Answer: ORYSA Visual Injury (%) ‘Lemont’ Obs (ORYSA (rice); safener 140 g ai/ha alone): 0%; ORYSA Visual Injury (%) ‘M202’ Obs (ORYSA (rice); safener 140 g ai/ha alone): 0%; ORYSA Visual Injury (%) ‘M202’ Obs (ORYSA (rice); safener 280 g ai/ha alone): 15%

Question: How did the “‘M202’ ORYSA Visual Injury (%) Obs” value (ORYSA (rice)) turn out when CCOC(=O)c1nc(C(Cl)(Cl)Cl)n(-c2ccc(Cl)cc2Cl)n1 [Fenchlorazole-ethyl] was run?
Answer: The value was 0.0%.

Question: CCCCOC(=O)c1nc(-c2ccc(Cl)c(OC)c2F)cc(N)c1Cl [Compound 1 n-Butyl Ester] was tested. Which “ORYSA Visual Injury (%) ‘Cheniere’ Obs” value (ORYSA (rice); [1]) did it give?
Answer: Its value is 25%.

Question: What about the “ORYSA Visual Injury (%) ‘Cocodrie’ Obs” value (ORYSA (rice); [1]) of the same compound?
Answer: The value was 20%.

Question: What about the “ORYSA Visual Injury (%) ‘M202’ Obs” value (ORYSA (rice); [1]) of the same compound?
Answer: Its value is 28%.

Question: How did the “ORYSA Visual Injury (%) ‘M202’ Obs” value (ORYSA (rice); safener 280 g ai/ha alone) turn out when CC(C)(SC(=O)N1CCCCC1)c1ccccc1 [Dimepiperate] was run?
Answer: The value was 10%.

Question: Which “ORYSA Visual Injury (%) ‘Cheniere’ Obs” value (ORYSA (rice); [2]) does the source give for COc1c(Cl)ccc(-c2cc(N)c(Cl)c(C(=O)[O-])n2)c1F.[K+] [Compound 1 K^+ Salt] here?
Answer: The value was 50%.

Question: What about the “ORYSA Visual Injury (%) ‘Clearfield’ Obs” value (ORYSA (rice); [2]) of the same compound?
Answer: Its value is 45%.

Question: And the “ORYSA Visual Injury (%) ‘Cocodrie’ Obs” value (ORYSA (rice); [2])?
Answer: The value was 30%.

Question: And the “ORYSA Visual Injury (%) ‘Lemont’ Obs” value (ORYSA (rice); [2])?
Answer: Its value is 40%.

Question: And the “ORYSA Visual Injury (%) ‘M202’ Obs” value (ORYSA (rice); [2])?
Answer: The value was 50%.

Question: And the “ORYSA Visual Injury (%) ‘Wells’ Obs” value (ORYSA (rice); [2])?
Answer: The value was 0%.

Question: Which “Visual Injury (%) ECHCO Obs” value (ECHCO) does the source give for CCC(C)OC(=O)COc1ccc(Cl)c2cccnc12 (centres unmarked) [Cloquintocet 1-Methylpropyl Ester] here?
Answer: The value was 0%.

Question: What about the “Visual Injury (%) ‘Lemont’ ORYSA Obs” value (ORYSA (rice); alone) of the same compound?
Answer: Its value is 0%.

Question: What about the “Visual Injury (%) CYPDI Obs” value (CYPDI) of the same compound?
Answer: Its value is 0%.

Question: And the “Visual Injury (%) SEBEX Obs” value (SEBEX)?
Answer: Its value is 0%.

Question: For COC(=O)COc1ccc(Cl)c2cccnc12 [Cloquintocet Methyl Ester], which “Visual Injury (%) ECHCO Obs” value (ECHCO) is on record?
Answer: Its value is 0%.

Question: And the “Visual Injury (%) ‘Lemont’ ORYSA Obs” value (ORYSA (rice); alone)?
Answer: Its value is 0%.

Question: What about the “Visual Injury (%) CYPDI Obs” value (CYPDI) of the same compound?
Answer: Its value is 0%.

Question: What about the “Visual Injury (%) SEBEX Obs” value (SEBEX) of the same compound?
Answer: Its value is 0%.

Question: How did the “ORYSA Visual Injury (%) ‘Cheniere’ Obs” value (ORYSA (rice); [3]) turn out when CCCOC(=O)c1nc(-c2ccc(Cl)c(OC)c2F)cc(N)c1Cl [Compound 1 n-Propyl Ester] was run?
Answer: The value was 45%.

Question: And the “ORYSA Visual Injury (%) ‘Clearfield’ Obs” value (ORYSA (rice); [3])?
Answer: Its value is 60%.

Question: What about the “ORYSA Visual Injury (%) ‘Cocodrie’ Obs” value (ORYSA (rice); [3]) of the same compound?
Answer: Its value is 45%.

Question: What about the “ORYSA Visual Injury (%) ‘Lemont’ Obs” value (ORYSA (rice); [3]) of the same compound?
Answer: Its value is 35%.

Question: What about the “ORYSA Visual Injury (%) ‘M202’ Obs” value (ORYSA (rice); [3]) of the same compound?
Answer: Its value is 55%.

Question: What about the “ORYSA Visual Injury (%) ‘Wells’ Obs” value (ORYSA (rice); [3]) of the same compound?
Answer: The value was 15%.

Question: Which “‘M202’ ORYSA Visual Injury (%) Obs” value (ORYSA (rice)) does the source give for FC(F)(F)C(=NOCC1OCCO1)c1ccc(Cl)cc1 [Fluxofenim, 1-(4-chlorophenyl)-2,2,2-trifluoroethanone O-(1,3-dioxolan-2-ylmethyl)oxime] here?
Answer: Its value is 3.3%.
